From patent US20230324392A1, “METHODS AND COMPOSITIONS FOR TARGETING CYTOSOLIC DSDNA SIGNALING IN CHROMOSOMALLY UNSTABLE CANCERS” (MEMORIAL SLOAN KETTERING CANCER CENTER, priority 2020, published 2023)

Columns and labels:
[1] = Tolerability of prolonged daily C-176 treatment, survival and necropsy; type: in vivo, mouse
Excerpt: In B16F10-bearing animals, nearly 30% of the treated group had no evidence of disease at 98 days (FIG. 4A). […] Thus, the therapeutic effect of the STING inhibitors on metastasis is primarily mediated through inhibition of cancer cell-intrinsic STING.

STING-KO B16F10 cells = experiment: Tail vein inoculation of STING-KO B16F10 cells in C57BL/6 mice, survival; type: in vivo, mouse; conditions: C57BL/6 mice inoculated with STING-KO B16F10 cells
Protocol: Animal metastasis studies: Animal experiments were performed in accordance with protocols approved by the MSKCC Institutional Animal Care and Use Committee. […] There was no need to randomize animals. Investigators were not blinded to group allocation. For tail vein injections, 5×10^4 4T1, 2.5×10^4 B16F10, or 10^5 CT26 cells were injected into the tail vein of 6-7-week old BALB/c (4T1 and CT26) or C57BL/6 (B16F10) mice. Metastasis was primarily assessed through overall survival. Overall survival endpoint was met when the mice died or met the criteria for euthanasia under the IACUC protocol. […] Surface lung metastases were assessed at endpoint by direct visual examination after euthanasia at which points lungs were perfused and fixed in 4% paraformaldehyde (4T1 and B16F10 experiments) or stained using India-ink (CT26 experiments). Furthermore, lung metastasis after injection of 4T1 cells was qualitatively assessed using routine hematoxylin and eosin (H&E) staining. […] Primary tumors were surgically excised on day 7 after implantation and metastatic dissemination was assessed by monitoring overall survival or on day 30 through quantification of surface lung metastases upon euthanasia. The length (L) and width (W) of the primary tumors were measured using calipers. Tumor size was calculated according to the following formula: L*W2/2. […]

[2] = system: B16F10, 4T1, and CT26 cells; experiment: xCELLigence assay for cell invasion; type: cell-based, mouse; conditions: C176 at 1 μM; all three metastatic cancer cell lines
Protocol: xCELLigence assayfor cell invasion: Assessment of the impact of STING inhibition on cell invasion was conducted using the xCELLigence system CIM plates (ACEA Biosciences, San Diego, CA). The upper chamber was coated with 1 mg/ml of growth factor complete Matrigel (#356234, Corning, UK) made up in serum free media (SFM) and incubated at 37° C. for 4 hours to allow polymerisation. A total of 4×10^4 cells in serum-free media were seeded into the upper chamber insert with C176 at 1 μM (Probechem, China) or DMSO control. The lower chamber was filled with complete media. The CIM plates were incubated at 1 hour at 37° C. and 5% C02 for cell attachment. Plates were then monitored using the xCELLigence system. Changes in impedance resulting from cell invasion to the underside of wells were recorded every 15 minutes and monitored for a total of 60 hours.

## O=C(Nc1ccc(I)cc1)c1ccc([N+](=O)[O-])o1 [C-176]
[1]; compared to vehicle-treated animals
  end-of-treatment necropsy: no distinct pathologic abnormalities
[1]; prolonged daily treatment, vs vehicle-treated animals
  tolerability / clinically evident toxicity: well tolerated and did not lead to any clinically evident toxicity
[1]; summary of Tables 9 and 10
  blood counts and blood chemistries: within normal limits
[1]; vs vehicle
  baseline cortisol levels: lower baseline cortisol levels
STING-KO B16F10 cells
  survival advantage beyond STING KO: did not provide an additional survival advantage
[2]
  invasion: significant reductions
